Data as given in article PMC11845761, “Intestinal human carboxylesterase 2 (CES2) expression rescues drug metabolism and most metabolic syndrome phenotypes in global Ces2 cluster knockout mice” (Acta Pharmacologica Sinica, 2024).

Key:
[1] = design: method as in PMID 11822766; settings: 24 patients; oral vinorelbine 80 mg/m^2; cited from earlier work
[2] = Tissue concentrations of vinorelbine and deacetylvinorelbine 4 h after oral vinorelbine in CES2-modified mice; assay type: in vivo, mouse; settings: oral vinorelbine 10 mg/kg
Experimental: For capecitabine 2-h experiments, 6–7 female mice received oral capecitabine (500 mg/kg, 10 μL/g), and tail vein blood samples were collected at 0.125, 0.25, 0.5 and 1 h after drug administration. For the vinorelbine 4-h experiment, 6-7 male mice received vinorelbine intravenously (10 mg/kg, 5 μL/g) or orally (10 mg/kg, 10 μL/g) using a blunt-ended needle. Tail vein blood samples were collected at 0.125, 0.25, 0.5, 1 and 2 h after drug administration. […] At the last time point in each experiment (2 or 4 h), mice were anesthetized with 5% isoflurane and blood was collected by cardiac puncture. […] Plasma was isolated from the blood by centrifugation at 9000 × g for 6 min at 4 °C, and the plasma fraction was collected and stored at −30 °C until analysis.
(§1) Concentrations of capecitabine (and its metabolites) and vinorelbine (and its metabolite) in mouse plasma samples and organ homogenates were determined using two independent validated high-performance liquid chromatography-tandem mass spectrometry assays.
Pharmacokinetic parameters were calculated by non-compartmental methods using the PK solver software. […] Differences were considered statistically significant when P < 0.05. All data are presented as mean ± SD.

[3] = Plasma pharmacokinetics of vinorelbine and deacetylvinorelbine after i.v. vinorelbine in CES2-modified mice; settings: i.v. vinorelbine 10 mg/kg; for AUC0-4h / AUC0-4h ratio (× 10^−3) (deacetylvinorelbine/vinorelbine) / Cmax / Tmax: plasma
Experimental: In order to minimize variation among individuals, mice were fasted for 3 h before drug was administered orally or intravenously. […] For the vinorelbine 4-h experiment, 6-7 male mice received vinorelbine intravenously (10 mg/kg, 5 μL/g) or orally (10 mg/kg, 10 μL/g) using a blunt-ended needle. […] Time points of termination were chosen to allow both reasonable assessment of the plasma exposure of the compound and its main metabolites, and adequate measurement of tissue concentrations. In order to minimize the generation and use of mice, and as no pronounced sex differences were expected, female mice were used for the capecitabine studies and male mice for the vinorelbine studies. Tail vein blood sample collection (~50 μL) was performed using microvettes containing dipotassium-EDTA. All blood samples were rapidly placed on ice to limit any ongoing hydrolysis. At the last time point in each experiment (2 or 4 h), mice were anesthetized with 5% isoflurane and blood was collected by cardiac puncture. Cardiac puncture blood samples (600–800 μL) were collected in Eppendorf tubes containing heparin as an anticoagulant. The mice were then sacrificed by cervical dislocation and brain, liver, kidney, lung, small intestine and testis were rapidly removed. Plasma was isolated from the blood by centrifugation at 9000 × g for 6 min at 4 °C, and the plasma fraction was collected and stored at −30 °C until analysis. Organs were homogenized with 4% (w/v) bovine serum albumin and stored at −30 °C until analysis. Relative metabolite-to-parental drug ratio after drug administration was calculated by determining metabolite tissue concentration relative to corresponding parental drug concentration at the last time point.
as §1
Pharmacokinetic parameters were calculated by non-compartmental methods using the PK solver software. The area under the plasma concentration-time curve (AUC) was calculated using the trapezoidal rule, without extrapolating to infinity. The peak plasma concentration (Cmax) and the time of maximum plasma concentration (Tmax) were estimated from the original (individual mouse) data. One-way analysis of variance (ANOVA) was used when multiple groups were compared and the Tukey’s test post hoc correction was used to accommodate multiple testing. The two-sided unpaired Student’s t-test was used when treatments or differences between two specific groups were compared. Kruskal-Wallis rank test was used for semi-quantitative assessment for (H&E)-staining of white adipose tissue and Oil Red O-staining of liver. All statistical analyses were performed using the software GraphPad Prism 8 (GraphPad Software Inc., La Jolla, CA, USA). All the linear data were log-transformed before statistical tests were applied. Differences were considered statistically significant when P < 0.05. All data are presented as mean ± SD.

What does the source list for `CCC1=C[C@@H]2CN(C1)Cc1c([nH]c3ccccc13)[C@@](C(=O)OC)(c1cc3c(cc1OC)N(C)[C@H]1[C@@](O)(C(=O)OC)[C@H](O)[C@]4(CC)C=CCN5CC[C@]31[C@@H]54)C2` [Deacetylvinorelbine, 4’-O-deacetylvinorelbine]?
plasma Cmax [1]: 9.1 ± 3.3 ng/mL; CSI (small intestine tissue concentration) ([2]; male Ces2^–/– mice): 625 ± 219 ng/g; CSIC (small intestine contents concentration) ([2]; male Ces2^–/– mice): 1091 ± 405 ng/g; Ccolon (colon concentration) ([2]; male Ces2^–/– mice): 5.0 ± 2.1 ng/g; Cliver (liver concentration) ([2]; male Ces2^–/– mice): 82 ± 29 ng/g; Colon Ratio (x 10^-3) (deacetylvinorelbine /vinorelbine) ([2]; male Ces2^–/– mice): 8.4 ± 1.5 x 10^-3; Liver Ratio (x 10^-3) (deacetylvinorelbine /vinorelbine) ([2]; male Ces2^–/– mice): 15 ± 7.5 x 10^-3; Small intestine Ratio (x 10^-3) (deacetylvinorelbine /vinorelbine) ([2]; male Ces2^–/– mice): 34 ± 10.0 x 10^-3; Small intestine contents Ratio (x 10^-3) (deacetylvinorelbine /vinorelbine) ([2]; male Ces2^–/– mice): 6.7 ± 1.4 x 10^-3; liver deacetylvinorelbine-to-vinorelbine ratio, fold decrease vs wild-type ([2]; male Ces2^–/– mice): 333 fold; small intestine tissue deacetylvinorelbine-to-vinorelbine ratio ([2]; male Ces2^–/– mice): 0.034 ± 0.010; CSI (small intestine tissue concentration) ([2]; male Ces2^–/–A mice): 748 ± 225 ng/g; CSIC (small intestine contents concentration) ([2]; male Ces2^–/–A mice): 1120 ± 623 ng/g; Ccolon (colon concentration) ([2]; male Ces2^–/–A mice): 6.0 ± 2.6 ng/g; Cliver (liver concentration) ([2]; male Ces2^–/–A mice): 162 ± 52 ng/g; Colon Ratio (x 10^-3) (deacetylvinorelbine /vinorelbine) ([2]; male Ces2^–/–A mice): 7.8 ± 2.6 x 10^-3; Liver Ratio (x 10^-3) (deacetylvinorelbine /vinorelbine) ([2]; male Ces2^–/–A mice): 19 ± 1.7 x 10^-3; Small intestine Ratio (x 10^-3) (deacetylvinorelbine /vinorelbine) ([2]; male Ces2^–/–A mice): 39 ± 8.0 x 10^-3; Small intestine contents Ratio (x 10^-3) (deacetylvinorelbine /vinorelbine) ([2]; male Ces2^–/–A mice): 5.9 ± 1.6 x 10^-3; liver deacetylvinorelbine-to-vinorelbine ratio, fold decrease vs wild-type ([2]; male Ces2^–/–A mice): 263 fold; small intestine tissue deacetylvinorelbine-to-vinorelbine ratio ([2]; male Ces2^–/–A mice): 0.039 ± 0.008; CSI (small intestine tissue concentration) ([2]; male Ces2^–/–V mice): 808 ± 578 ng/g; CSIC (small intestine contents concentration) ([2]; male Ces2^–/–V mice): 957 ± 441 ng/g; Ccolon (colon concentration) ([2]; male Ces2^–/–V mice): 8.1 ± 4.8 ng/g; Cliver (liver concentration) ([2]; male Ces2^–/–V mice): 178 ± 110 ng/g; Colon Ratio (x 10^-3) (deacetylvinorelbine /vinorelbine) ([2]; male Ces2^–/–V mice): 13 ± 3.7 x 10^-3; Liver Ratio (x 10^-3) (deacetylvinorelbine /vinorelbine) ([2]; male Ces2^–/–V mice): 21 ± 7.8 x 10^-3; Small intestine Ratio (x 10^-3) (deacetylvinorelbine /vinorelbine) ([2]; male Ces2^–/–V mice): 49 ± 15 x 10^-3; Small intestine contents Ratio (x 10^-3) (deacetylvinorelbine /vinorelbine) ([2]; male Ces2^–/–V mice): 8.4 ± 3.4 x 10^-3; liver deacetylvinorelbine-to-vinorelbine ratio, fold decrease vs wild-type ([2]; male Ces2^–/–V mice): 238 fold; small intestine tissue deacetylvinorelbine-to-vinorelbine ratio ([2]; male Ces2^–/–V mice): 0.049 ± 0.015; CSI (small intestine tissue concentration) ([2]; male wild-type mice): 9590 ± 4337 ng/g; CSIC (small intestine contents concentration) ([2]; male wild-type mice): 15491 ± 4320 ng/g; Ccolon (colon concentration) ([2]; male wild-type mice): 369 ± 240 ng/g; Cliver (liver concentration) ([2]; male wild-type mice): 7589 ± 2725 ng/g; Colon Ratio (x 10^-3) (deacetylvinorelbine /vinorelbine) ([2]; male wild-type mice): 1000 ± 390 x 10^-3; Liver Ratio (x 10^-3) (deacetylvinorelbine /vinorelbine) ([2]; male wild-type mice): 5000 ± 1000 x 10^-3; Small intestine Ratio (x 10^-3) (deacetylvinorelbine /vinorelbine) ([2]; male wild-type mice): 880 ± 220 x 10^-3; Small intestine contents Ratio (x 10^-3) (deacetylvinorelbine /vinorelbine) ([2]; male wild-type mice): 220 ± 73 x 10^-3; liver deacetylvinorelbine-to-vinorelbine ratio ([2]; male wild-type mice): 5.0 ± 1.0; small intestine tissue deacetylvinorelbine-to-vinorelbine ratio ([2]; male wild-type mice): 0.88 ± 0.22; AUC0-4h ([3]; male Ces2^–/– mice): 10.1 ± 2.3 ng·h/mL; AUC0-4h ratio (× 10^−3) (deacetylvinorelbine/vinorelbine) ([3]; male Ces2^–/– mice): 1.7 ± 0.2 × 10^−3; Cmax ([3]; male Ces2^–/– mice): 5.9 ± 1.4 ng/mL; Tmax ([3]; male Ces2^–/– mice): 7.8 ± 0 min; plasma AUC0-4h, fold decrease vs wild-type ([3]; male Ces2^–/–A mice): 55.5 fold; AUC0-4h ([3]; male Ces2^–/–A mice): 12.0 ± 3.8 ng·h/mL; AUC0-4h ratio (× 10^−3) (deacetylvinorelbine/vinorelbine) ([3]; male Ces2^–/–A mice): 2.2 ± 0.5 × 10^−3; Cmax ([3]; male Ces2^–/–A mice): 7.6 ± 2.7 ng/mL; Tmax ([3]; male Ces2^–/–A mice): 15 ± 11.4 min; plasma AUC0-4h, fold decrease vs wild-type ([3]; male Ces2^–/–V mice): 41.1 fold; AUC0-4h ([3]; male Ces2^–/–V mice): 16.2 ± 8.4 ng·h/mL; AUC0-4h ratio (× 10^−3) (deacetylvinorelbine/vinorelbine) ([3]; male Ces2^–/–V mice): 1.7 ± 0.2 × 10^−3; Cmax ([3]; male Ces2^–/–V mice): 8.2 ± 3.5 ng/mL; Tmax ([3]; male Ces2^–/–V mice): 10.2 ± 4.2 min; AUC0-4h ([3]; male wild-type mice): 666 ± 138 ng·h/mL; AUC0-4h ratio (× 10^−3) (deacetylvinorelbine/vinorelbine) ([3]; male wild-type mice): 110 ± 60 × 10^−3; Cmax ([3]; male wild-type mice): 346 ± 104 ng/mL
